Measurements from ChEMBL document CHEMBL3769303, “Discovery of membrane active benzimidazole quinolones-based topoisomerase inhibitors as potential DNA-binding antimicrobial agents” (Eur J Med Chem, 2016).
Converted amounts (≈) assume the structure as drawn. The source made the active and inactive calls. The rule behind the calls is not given here.

Legend:
Shigella dysenteriae = assay: Antibacterial activity against Shigella dysenteriae by micro broth dilution method; assay type: functional
Staphylococcus aureus [1] = assay: Antibacterial activity against methicillin-resistant Staphylococcus aureus N315 by micro broth dilution method; assay type: functional
Staphylococcus aureus [2] = assay: Antibacterial activity against Staphylococcus aureus ATCC 25923 by micro broth dilution method; assay type: functional
Micrococcus luteus = assay: Antibacterial activity against Micrococcus luteus ATCC 4698 by micro broth dilution method; assay type: functional; conditions: NCTC 2665
Bacillus spizizenii = assay: Antibacterial activity against Bacillus subtilis ATCC 6633 by micro broth dilution method; assay type: functional
Escherichia coli [3] = assay: Antibacterial activity against Escherichia coli DH52 by micro broth dilution method; assay type: functional
Escherichia coli [4] = assay: Antibacterial activity against Escherichia coli JM109 by micro broth dilution method; assay type: functional
Pseudomonas aeruginosa = assay: Antibacterial activity against Pseudomonas aeruginosa ATCC 27853 by micro broth dilution method; assay type: functional
[5] = Antibacterial activity against Bacillus proteus ATCC 13315 by micro broth dilution method; assay type: functional
Salmonella enterica = assay: Antibacterial activity against Salmonella enterica ATCC 14028 by micro broth dilution method; assay type: functional
[6] = Antifungal activity against Candida mycoderma ATCC 9888 after 24 hrs by micro broth dilution method; assay type: functional; conditions: Candida vini
Cyberlindnera jadinii = assay: Antifungal activity against Candida utilis ATCC 9950 after 24 hrs by micro broth dilution method; assay type: functional; conditions: Williopsis jadinii, ATCC 9950, 24 h
Aspergillus flavus = assay: Antifungal activity against Aspergillus flavus ATCC 204304 after 24 hrs by micro broth dilution method; assay type: functional; conditions: ATCC 204304, 24 h
Saccharomyces cerevisiae = assay: Antifungal activity against Saccharomyces cerevisiae ATCC 9763 after 24 hrs by micro broth dilution method; assay type: functional; conditions: ATCC 9763, 24 h
Candida albicans = assay: Antifungal activity against Candida albicans ATCC 10231 after 24 hrs by micro broth dilution method; assay type: functional; conditions: ATCC 10231, 24 h
Staphylococcus aureus [7] = assay: Antibacterial activity against methicillin-resistant Staphylococcus aureus N315 at MIC measured after 6 passages; assay type: functional, organism-based
Calf thymus DNA = assay: Binding affinity to calf thymus DNA by UV-visible spectroscopy; assay type: nucleic-acid assay; conditions: Bos taurus

Compound | MIC (Shigella dysenteriae) [mg/L] | MIC (Staphylococcus aureus [1]) [mg/L] | MIC (Staphylococcus aureus [2]) [mg/L] | MIC (Micrococcus luteus) [mg/L] | MIC (Bacillus spizizenii) [mg/L] | MIC (Escherichia coli [3]) [mg/L] | MIC (Escherichia coli [4]) [mg/L] | MIC (Pseudomonas aeruginosa) [mg/L] | MIC [5] [mg/L] | MIC (Salmonella enterica) [mg/L] | MIC80 [6] [mg/L] | MIC80 (Cyberlindnera jadinii) [mg/L] | MIC80 (Aspergillus flavus) [mg/L] | MIC80 (Saccharomyces cerevisiae) [mg/L] | MIC80 (Candida albicans) [mg/L] | Activity (Staphylococcus aureus [7]) | Activity (Calf thymus DNA)
O=C(O)c1cn(C2CC2)c2cc(N3CCN(Cc4nc5ccccc5n4Cc4ccccc4Cl)CC3)c(F)cc2c1=O | 16 (≈ 27.3 µM) | 4 (≈ 6.83 µM) | 16 (≈ 27.3 µM) | 4 (≈ 6.83 µM) | 0.5 (≈ 0.853 µM) | 2 (≈ 3.41 µM) | 16 (≈ 27.3 µM) | 2 (≈ 3.41 µM) | 1 (≈ 1.71 µM) | 2 (≈ 3.41 µM) | 4 (≈ 6.83 µM) | 1 (≈ 1.71 µM) | 0.5 (≈ 0.853 µM) | 16 (≈ 27.3 µM) | 8 (≈ 13.7 µM) | – | –
CCCCCCCCCCCCn1c(CN2CCN(c3cc4c(cc3F)c(=O)c(C(=O)O)cn4CC)CC2)nc2ccccc21 | 256 (≈ 414 µM) | 256 (≈ 414 µM) | 128 (≈ 207 µM) | 256 (≈ 414 µM) | 128 (≈ 207 µM) | 256 (≈ 414 µM) | 512 (≈ 829 µM) | 256 (≈ 414 µM) | 256 (≈ 414 µM) | 256 (≈ 414 µM) | 128 (≈ 207 µM) | 64 (≈ 104 µM) | 64 (≈ 104 µM) | 256 (≈ 414 µM) | 128 (≈ 207 µM) | – | –
CCn1cc(C(=O)O)c(=O)c2cc(F)c(N3CCNCC3)cc21 [NORFLOXACIN] | 16 (≈ 50.1 µM) | 8 (≈ 25.1 µM) | 2 (≈ 6.26 µM) | 2 (≈ 6.26 µM) | 4 (≈ 12.5 µM) | 1 (≈ 3.13 µM) | 1 (≈ 3.13 µM) | 16 (≈ 50.1 µM) | 8 (≈ 25.1 µM) | 4 (≈ 12.5 µM) | – | – | – | – | – | inactive | Active
O=C(O)c1cn(C2CC2)c2cc(N3CCN(Cc4nc5ccc(Br)cc5[nH]4)CC3)c(F)cc2c1=O | 16 (≈ 29.6 µM) | 4 (≈ 7.4 µM) | 64 (≈ 118 µM) | 16 (≈ 29.6 µM) | 16 (≈ 29.6 µM) | 8 (≈ 14.8 µM) | 32 (≈ 59.2 µM) | 1 (≈ 1.85 µM) | 8 (≈ 14.8 µM) | 4 (≈ 7.4 µM) | 16 (≈ 29.6 µM) | 4 (≈ 7.4 µM) | 2 (≈ 3.7 µM) | 4 (≈ 7.4 µM) | 2 (≈ 3.7 µM) | – | –
